Data on 49 molecules can be found in US8288371B2, “Ortho pyrrolidine, benzyl-substituted heterocycle CCR1 antagonists for autoimmune diseases and inflammation” (Pharmacopeia, LLC, priority 2007, dated 2012).

Where only a bound is given, the exact number is not on record here.

The target in this experiment is T1, human CCR1 (Homo sapiens, UniProt P32246).
T1 sequence (P32246 1-355): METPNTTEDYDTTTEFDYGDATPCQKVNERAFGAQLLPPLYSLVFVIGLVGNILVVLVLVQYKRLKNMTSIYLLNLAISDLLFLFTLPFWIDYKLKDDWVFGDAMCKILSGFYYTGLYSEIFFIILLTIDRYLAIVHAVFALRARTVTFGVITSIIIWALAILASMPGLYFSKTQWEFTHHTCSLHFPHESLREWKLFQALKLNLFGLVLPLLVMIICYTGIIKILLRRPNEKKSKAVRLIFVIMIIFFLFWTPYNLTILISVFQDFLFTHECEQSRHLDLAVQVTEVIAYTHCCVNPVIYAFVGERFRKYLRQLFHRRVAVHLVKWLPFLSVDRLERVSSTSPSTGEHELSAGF
In words: CCR1 binding protocol (SPA, [125I]-MIP-1α displacement). As to conditions: cell membrane expressing human CCR1, 0.1 nM [125I]-MIP-1α, 4 hours at ambient temperature; read-out: Relative potency (IC50). On the procedure:
The following protocol was used to test compounds for CCR1 binding. A mixture, including scintillation proximity assay (SPA) beads and cell membrane expressing human CCR1, was prepared in assay buffer (130 mM NaCl+5 mM KCl+1 mM MnCl+50 mM Tris HCl at pH 7.4+0.1% bovine serum albumin (BSA)) at the ratio of 50 μg/ml membrane to 10 mg/ml SPA beads. 10 μl of the mixture was transferred to each well of a 384-well assay plate yielding a final concentration for the membrane and SPA beads of 0.5 μg/well and 100 μg/well, respectively
To generate different concentrations of the test compound, compound stocks were prepared using 10 step ½ log dilutions with a high concentration of 10 mM in DMSO and the lowest concentration being DMSO only without compound. An intermediate 40× dilution was then prepared in the assay buffer. The compound was then transferred at 10 μl/well to the assay plate. 0.5 nM [^125 I]-labeled macrophage inflammatory protein-1α (MIP-1α, an endogenous CCR1 ligand) in the assay buffer was transferred to the assay plate at 5 μl/well, for a final ligand concentration of 0.1 nM. The assay plate was then centrifuged at 2500 rpm for 2 minutes and incubated for 4 hours at ambient temperature, at which time the raw data was recorded using microbeta. The IC50 was then calculated using Graphpad Prism.
Regarding `Cc1nc(C(F)(F)F)ccc1NC(=O)N1CCC[C@@H]1c1nnc(C)n1Cc1cccc(Cl)c1` [Compound 538], the IC50 lay in the range of 500 to 5000 nM.

On to `Cc1nnc([C@H]2C[C@H](O)CN2C(=O)N[C@@H](C)c2ccc(Cl)cc2)n1Cc1ccc(Cl)cc1` [Compound 474], for which the 50% inhibitory concentration (IC50) is below 50 nM. Take `Cc1nn(C)c(C)c1N/C(=N\C#N)N1CCC[C@@H]1c1nnc(C)n1Cc1ccc(Cl)cc1` [Compound 397]: the 50% inhibitory concentration (IC50) lay in the range of 50 to 500 nM. Take `O=C(N[C@H]1CCOc2c(F)cccc21)N1CCC[C@@H]1c1ncncc1Cc1ccc(Cl)cc1` [Compound 22]: the concentration for half-maximal inhibition (IC50) lay within 50 to 500 nM.

On to `Cc1nnc([C@H]2CCCN2C(=O)N[C@H]2CCOc3cc(C(F)(F)F)ccc32)n1[C@@H](C)c1ccc(Cl)cc1` [Compound 337], for which the half-maximal inhibitory concentration (IC50) was in the range of 50 to 500 nM. Consider `O=C(NCc1ccc(C(F)(F)F)cc1)N1CCC[C@@H]1c1nnc(Cl)n1Cc1ccc(Cl)cc1` [Compound 205], for which the IC50 was below 50 nM. Turning to `Cc1nc(C(F)(F)F)ccc1NC(=S)N1CCC[C@@H]1c1nnc(C)n1Cc1ccc(Cl)cc1` [Compound 607], the IC50 was below 50 nM. In the case of `Cc1cc(C(N)=O)ccc1NC(=O)N1CCC[C@@H]1c1nnc(C)n1Cc1ccc(Cl)cc1` [Compound 300] it was 50 to 500 nM; in that of `O=C(N[C@H]1CCc2ccccc2C1)N1CCC[C@@H]1c1ncnn1Cc1ccc(Cl)cc1` [Compound 56], below 50 nM. With `Cc1nnc([C@H]2CCCN2C(=O)NC2(c3ccccc3)CC2)n1Cc1ccc(Cl)cc1` [Compound 204], the IC50 is below 50 nM. Turning to `Cc1nnc([C@H]2CCCN2C(=O)N[C@H]2CCCOc3ccccc32)n1Cc1ccc(Cl)cc1` [Compound 261], the IC50 lay in the range of 50 to 500 nM. As for `Cc1cc(C)c(NC(=O)N2CCC[C@@H]2c2nnc(C)n2Cc2ccc(Cl)cc2)c(C)c1` [Compound 150], the IC50 was below 50 nM. In the case of `Cc1cnc([C@H]2CCCN2C(=O)Nc2ccc(Cl)cc2F)n1Cc1ccc(Cl)cc1` [Compound 567] it was 50 to 500 nM; in that of `Cc1nnc([C@H]2CCCN2C(=O)Nc2ccc(S(=O)(=O)O)cc2Cl)n1Cc1ccc(Cl)cc1` [Compound 456], 50 to 500 nM; in that of `Cc1ccc([C@H](C)NC(=O)N2CCC[C@@H]2c2nnc(C)n2Cc2ccc(Cl)cc2)c(C)n1` [Compound 626], 50 to 500 nM. With `Cc1noc(-c2ccccc2)c1NC(=O)N1CCC[C@@H]1c1oncc1Cc1ccc(Cl)cc1` [Compound 2], the IC50 lay within 50 to 500 nM. Next, `Cc1nnc([C@H]2CCCN2C(=O)Nc2c(Cl)ncnc2Cl)n1Cc1ccc(Cl)cc1` [Compound 201]: below 50 nM. In the case of `O=C(N[C@H]1CCS(=O)(=O)c2ccc(Cl)cc21)N1CCC[C@@H]1c1nnc(CO)n1Cc1ccc(Cl)cc1` [Compound 371] it was 50 to 500 nM; in that of `Cc1nnc([C@H]2CCCN2C(=O)Nc2cc(-c3ccccc3)nn2C)n1Cc1ccc(Cl)cc1` [Compound 356], below 50 nM; in that of `Cc1nnc([C@H]2CCCN2C(=O)NC2(c3ccc(Cl)cc3)CC2)n1Cc1ccc(Cl)cc1` [Compound 271], below 50 nM. Next, `Cc1noc(-c2ccccc2)c1NC(=O)N1CCC[C@@H]1c1ncnn1Cc1ccc(Cl)cc1` [Compound 60]: below 50 nM. In the case of `Cc1nnc([C@H]2CCCN2C(=O)Nc2ccc(C(F)(F)F)nc2)n1Cc1ccc(Cl)cc1` [Compound 633], the IC50 was in the range of 50 to 500 nM. In the case of `O=C(N[C@H]1CCOc2cc(C(F)(F)F)ccc21)N1CCC[C@@H]1c1nnnn1Cc1ccc(Cl)cc1` [Compound 55] it was below 50 nM.

Turning to `Cc1nnc([C@H]2CCCN2C(=O)Nc2ccncc2)n1Cc1ccc(Cl)cc1` [Compound 237], the IC50 was 50 to 500 nM.

Consider `Cc1nnc([C@H]2CCCN2C(=O)N[C@@H](C)c2cccnc2)n1Cc1ccc(Cl)cc1` [Compound 124], for which the IC50 was below 50 nM. In the case of `Cc1nnc([C@H]2CCCN2C(=O)NCc2ccc(C(F)(F)F)cc2)n1Cc1ccc(Cl)cc1` [Compound 130] it was below 50 nM; in that of `Cc1nnc([C@H]2C[C@@H](O)CN2C(=O)Cc2cccc(C(F)(F)F)c2)n1Cc1ccc(Cl)cc1` [Compound 502], 50 to 500 nM; in that of `Cc1onc(-c2ccccc2F)c1NC(=O)N1CCC[C@@H]1c1nnc(C)n1Cc1ccc(Cl)cc1` [Compound 291], below 50 nM. Consider `COC1C[C@H](c2nnc(C)n2Cc2ccc(Cl)cc2)N(C(=O)Nc2ccc(Cl)cc2F)C1` (stereo partly shown) [Compound 541], for which the IC50 lay within 50 to 500 nM.

With `Cn1cc(Cc2ccc(Cl)cc2)c([C@H]2CCCN2C(=O)Nc2ccc(C(F)(F)F)cc2)n1` [Compound 8], the IC50 was 50 to 500 nM. Consider `Cc1nnc([C@H]2CCCN2C(=O)Cc2ccc(Cl)cc2F)n1Cc1ccc(Cl)cc1` [Compound 507], for which the half-inhibitory concentration (IC50) lay in the range of 50 to 500 nM. In the case of `Cc1nc(C(F)(F)F)ncc1NC(=O)N1CCC[C@@H]1c1nnc(C)n1Cc1ccc(Cl)cc1` [Compound 431], the IC50 was below 50 nM. Next, `O=C(Nc1ccc(Cl)cc1F)N1CCC[C@@H]1c1nnc(Cl)n1Cc1ccc(Cl)cc1` [Compound 552]: below 50 nM; `Cc1nnc([C@H]2CCCN2C(=O)Nc2cc(C(=O)N(C)C)ccc2C(F)(F)F)n1Cc1ccc(Cl)cc1` [Compound 379]: 50 to 500 nM; `N#Cc1ccc2c(c1)OCC[C@H]2NC(=O)N1CCC[C@@H]1c1nnc(CO)n1Cc1ccc(Cl)cc1` [Compound 340]: below 50 nM. Next, `CC1(C)CC(NC(=O)N2CCC[C@@H]2c2nnnn2Cc2ccc(Cl)cc2)c2ccccc2O1` (stereo partly shown) [Compound 49]: 50 to 500 nM. In the case of `Cc1ccc2c(c1)CCCC2NC(=O)N1CCC[C@@H]1c1nnc(C)n1Cc1ccc(Cl)cc1` (stereo partly shown) [Compound 269] it was 50 to 500 nM; in that of `CC(=O)N1CCC[C@H](NC(=O)N2CCC[C@@H]2c2nnc(C)n2Cc2ccc(Cl)cc2)C1` [Compound 232], 50 to 500 nM.

Take `Cc1nnc([C@H]2CCCN2C(=O)Nc2cc(C(F)(F)F)ccc2S(C)(=O)=O)n1Cc1ccc(Cl)cc1` [Compound 423]: the half-inhibitory concentration (IC50) lay within 50 to 500 nM. In the case of `O=C(Nc1ccc(Cl)c(C(F)(F)F)c1)N1CCC[C@@H]1c1ncnn1Cc1ccc(Cl)cc1` [Compound 448] it was 50 to 500 nM. In the case of `O=C(NC1CCCOc2ccccc21)N1CCC[C@@H]1c1ncnn1Cc1ccc(Cl)cc1` (stereo partly shown) [Compound 89] it was below 50 nM. As to `CCc1nnc([C@H]2CCCN2C(=O)NCc2ccc(C(F)(F)F)cc2)n1Cc1ccc(Cl)cc1` [Compound 311], the IC50 lay in the range of 50 to 500 nM. For `Cc1nnc([C@H]2CCCN2C(=O)Nc2ccc(Cl)c(F)c2)n1Cc1ccc(Cl)cc1` [Compound 408], the IC50 was in the range of 50 to 500 nM. Take `NC(=O)c1nnc([C@H]2CCCN2C(=O)Nc2ccc(Cl)cc2F)n1Cc1ccc(Cl)cc1` [Compound 490]: the IC50 fell in the range of 500 to 5000 nM.

Turning to `O=C(NC1CCS(=O)(=O)c2ccccc21)N1CCC[C@@H]1c1ncnn1Cc1ccc(Cl)cc1` (stereo partly shown) [Compound 78], the half-maximal inhibitory concentration (IC50) was in the range of 500 to 5000 nM. Take `Cc1ncc(Cc2ccc(Cl)cc2)c([C@H]2CCCN2C(=O)Nc2ccc3c(c2)N(C)C(=O)CO3)n1` [Compound 27]: the 50% inhibitory concentration (IC50) lay within 500 to 5000 nM. Consider `O=C(N[C@H]1CCOc2cc(C(F)(F)F)ccc21)N1CCC[C@@H]1c1oncc1Cc1ccc(Cl)cc1` [Compound 4], for which the half-inhibitory concentration (IC50) lay in the range of 50 to 500 nM. In the case of `Cc1cc(C(F)(F)F)cc(C)c1NC(=O)N1CCC[C@@H]1c1ncncc1Cc1ccc(Cl)cc1` [Compound 12] it was below 50 nM. As to `Cc1onc(-c2ccccc2)c1NC(=O)N1CCC[C@@H]1c1ncncc1Cc1ccc(Cl)cc1` [Compound 15], the IC50 was below 50 nM.

The term IC50 denotes the midpoint of a concentration-inhibition curve.
